Experimental data: US20110039721A1, “METHOD FOR PREDICTION ABOUT CARCINOGENICITY OF SUBSTANCE IN RODENT” (Chemicals Evaluation and Research Institute, priority 2007, published 2011)

Key:
[1] = test system: mRNA expressed from the genes (A) to (D) in rat liver; assay: Behavior of genes (mRNA expression level, oligo-DNA microarray) in rat liver after 28-day oral administration; assay type: in vivo; conditions: rat liver, oral once daily 28 days; for Behavior of gene caused by administration of chemical substance, Gene No. 4846 / Behavior of gene caused by administration of chemical substance, Gene No. 4218 / Behavior of gene caused by administration of chemical substance, Gene No. 2026 / Behavior of gene caused by administration of chemical substance, Gene No. 6182 / Behavior of gene caused by administration of chemical substance, Gene No. 5600: (A); for Behavior of gene caused by administration of chemical substance, Gene No. 4846: Unigene Rn.144554, defined direction +; for Behavior of gene caused by administration of chemical substance, Gene No. 4218: Unigene Rn.167075, defined direction +, significant = 1.5 times or more or 1/1.5 or less of control; for Behavior of gene caused by administration of chemical substance, Gene No. 2026: Unigene Rn.167075, defined direction −; for Behavior of gene caused by administration of chemical substance, Gene No. 6182: Unigene Rn.5834, defined direction +; for Behavior of gene caused by administration of chemical substance, Gene No. 5600: Unigene Rn.9836, defined direction +; for Behavior of gene caused by administration of chemical substance, Gene No. 1494 / Behavior of gene caused by administration of chemical substance, Gene No. 2045 / Behavior of gene caused by administration of chemical substance, Gene No. 2203: (B); for Behavior of gene caused by administration of chemical substance, Gene No. 1494: Unigene Rn.1430, defined direction −; for Behavior of gene caused by administration of chemical substance, Gene No. 2045: Unigene Rn.19329, defined direction +; for Behavior of gene caused by administration of chemical substance, Gene No. 2203: Unigene Rn.21240, defined direction +; for Behavior of gene caused by administration of chemical substance, Gene No. 533 / Behavior of gene caused by administration of chemical substance, Gene No. 725 / Behavior of gene caused by administration of chemical substance, Gene No. 1163 / Behavior of gene caused by administration of chemical substance, Gene No. 4973 / Behavior of gene caused by administration of chemical substance, Gene No. 4095 / Behavior of gene caused by administration of chemical substance, Gene No. 1334 / Behavior of gene caused by administration of chemical substance, Gene No. 6620 / Behavior of gene caused by administration of chemical substance, Gene No. 6303 / Behavior of gene caused by administration of chemical substance, Gene No. 5878 / Behavior of gene caused by administration of chemical substance, Gene No. 1131 / Behavior of gene caused by administration of chemical substance, Gene No. 1562 / Behavior of gene caused by administration of chemical substance, Gene No. 1741 / Behavior of gene caused by administration of chemical substance, Gene No. 893 / Behavior of gene caused by administration of chemical substance, Gene No. 6026 / Behavior of gene caused by administration of chemical substance, Gene No. 154 / Behavior of gene caused by administration of chemical substance, Gene No. 1993 / Behavior of gene caused by administration of chemical substance, Gene No. 813 / Behavior of gene caused by administration of chemical substance, Gene No. 2494 / Behavior of gene caused by administration of chemical substance, Gene No. 2546 / Behavior of gene caused by administration of chemical substance, Gene No. 3776 / Behavior of gene caused by administration of chemical substance, Gene No. 3929 / Behavior of gene caused by administration of chemical substance, Gene No. 1119 / Behavior of gene caused by administration of chemical substance, Gene No. 6742 / Behavior of gene caused by administration of chemical substance, Gene No. 5634: (C); for Behavior of gene caused by administration of chemical substance, Gene No. 533: Unigene Rn.106184, defined direction +; for Behavior of gene caused by administration of chemical substance, Gene No. 725: Unigene Rn.108075, defined direction −; for Behavior of gene caused by administration of chemical substance, Gene No. 1163: Unigene Rn.11766, defined direction +; for Behavior of gene caused by administration of chemical substance, Gene No. 4973: Unigene Rn.118529, defined direction −; for Behavior of gene caused by administration of chemical substance, Gene No. 4095: Unigene Rn.119024, defined direction −; for Behavior of gene caused by administration of chemical substance, Gene No. 1334 / Behavior of gene caused by administration of chemical substance, Gene No. 6620: Unigene Rn.120914, defined direction +; for Behavior of gene caused by administration of chemical substance, Gene No. 6303: Unigene Rn.123063, defined direction −; for Behavior of gene caused by administration of chemical substance, Gene No. 5878: Unigene Rn.143213, defined direction −; for Behavior of gene caused by administration of chemical substance, Gene No. 1131: Unigene Rn.144946, defined direction −; for Behavior of gene caused by administration of chemical substance, Gene No. 1562: Unigene Rn.14744, defined direction −; for Behavior of gene caused by administration of chemical substance, Gene No. 1741: Unigene Rn.1647, defined direction −; for Behavior of gene caused by administration of chemical substance, Gene No. 893: Unigene Rn.164817, defined direction +; for Behavior of gene caused by administration of chemical substance, Gene No. 6026: Unigene Rn.167685, defined direction −; for Behavior of gene caused by administration of chemical substance, Gene No. 154: Unigene Rn.185941, defined direction −; for Behavior of gene caused by administration of chemical substance, Gene No. 1993: Unigene Rn.18728, defined direction −; for Behavior of gene caused by administration of chemical substance, Gene No. 813: Unigene Rn.201760, defined direction +; for Behavior of gene caused by administration of chemical substance, Gene No. 2494: Unigene Rn.23969, defined direction +; for Behavior of gene caused by administration of chemical substance, Gene No. 2546: Unigene Rn.24561, defined direction −; for Behavior of gene caused by administration of chemical substance, Gene No. 3776: Unigene Rn.43232, defined direction −; for Behavior of gene caused by administration of chemical substance, Gene No. 3929: Unigene Rn.4620, defined direction +; for Behavior of gene caused by administration of chemical substance, Gene No. 1119: Unigene Rn.9757, defined direction +; for Behavior of gene caused by administration of chemical substance, Gene No. 6742: Unigene Rn.9779, defined direction +; for Behavior of gene caused by administration of chemical substance, Gene No. 5634: Unigene Rn.9862, defined direction −; for Behavior of gene caused by administration of chemical substance, Gene No. 5726: (D), Unigene Rn.9939, defined direction −
Outline: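 Rat liver RNA after 28 days of daily gavage dosing (male F344, 5 weeks old, four per group). A change reaching 1.5-fold, or 1/1.5, against solvent control scores as significant; opposite direction versus another carcinogen scores as not significant.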

[2] = test system: liver; conditions: in vivo; cited from earlier work
[3] = test system: rodent; conditions: in vivo; cited from earlier work

| SMILES | Behavior of gene caused by administration of chemical substance, Gene No. 4846 [1] | Behavior of gene caused by administration of chemical substance, Gene No. 4218 [1] | Behavior of gene caused by administration of chemical substance, Gene No. 2026 [1] | Behavior of gene caused by administration of chemical substance, Gene No. 6182 [1] | Behavior of gene caused by administration of chemical substance, Gene No. 5600 [1] | Behavior of gene caused by administration of chemical substance, Gene No. 1494 [1] | Behavior of gene caused by administration of chemical substance, Gene No. 2045 [1] | Behavior of gene caused by administration of chemical substance, Gene No. 2203 [1] | Behavior of gene caused by administration of chemical substance, Gene No. 533 [1] | Behavior of gene caused by administration of chemical substance, Gene No. 725 [1] | Behavior of gene caused by administration of chemical substance, Gene No. 1163 [1] | Behavior of gene caused by administration of chemical substance, Gene No. 4973 [1] | Behavior of gene caused by administration of chemical substance, Gene No. 4095 [1] | Behavior of gene caused by administration of chemical substance, Gene No. 1334 [1] | Behavior of gene caused by administration of chemical substance, Gene No. 6620 [1] | Behavior of gene caused by administration of chemical substance, Gene No. 6303 [1] | Behavior of gene caused by administration of chemical substance, Gene No. 5878 [1] | Behavior of gene caused by administration of chemical substance, Gene No. 1131 [1] | Behavior of gene caused by administration of chemical substance, Gene No. 1562 [1] | Behavior of gene caused by administration of chemical substance, Gene No. 1741 [1] | further results |
| --- | --- | --- | --- | --- | --- | --- | --- | --- | --- | --- | --- | --- | --- | --- | --- | --- | --- | --- | --- | --- | --- |
| CCN(CC)N=O [TS011, Diethylnitrosamine] | + | + | + | + | + | + | − | − | + | − | − | + | + | − | − | + | − | − | + | + | Behavior of gene caused by administration of chemical substance, Gene No. 893 [1]: +; Behavior of gene caused by administration of chemical substance, Gene No. 6026 [1]: +; Behavior of gene caused by administration of chemical substance, Gene No. 154 [1]: +; Behavior of gene caused by administration of chemical substance, Gene No. 1993 [1]: +; Behavior of gene caused by administration of chemical substance, Gene No. 813 [1]: −; Behavior of gene caused by administration of chemical substance, Gene No. 2494 [1]: +; Behavior of gene caused by administration of chemical substance, Gene No. 2546 [1]: +; Behavior of gene caused by administration of chemical substance, Gene No. 3776 [1]: −; Behavior of gene caused by administration of chemical substance, Gene No. 3929 [1]: −; Behavior of gene caused by administration of chemical substance, Gene No. 1119 [1]: −; Behavior of gene caused by administration of chemical substance, Gene No. 6742 [1]: −; Behavior of gene caused by administration of chemical substance, Gene No. 5634 [1]: −; Behavior of gene caused by administration of chemical substance, Gene No. 5726 [1]: −; Liver carcinogenicity [2]: Cr+; Carcinogenicity [3]: C+ |
| O=NN1CCOCC1 [TS014, N-Nitrosomorpholine] | + | + | + | + | + | + | − | − | − | − | + | − | − | − | − | − | − | − | − | − | Behavior of gene caused by administration of chemical substance, Gene No. 893 [1]: −; Behavior of gene caused by administration of chemical substance, Gene No. 6026 [1]: −; Behavior of gene caused by administration of chemical substance, Gene No. 154 [1]: −; Behavior of gene caused by administration of chemical substance, Gene No. 1993 [1]: +; Behavior of gene caused by administration of chemical substance, Gene No. 813 [1]: +; Behavior of gene caused by administration of chemical substance, Gene No. 2494 [1]: −; Behavior of gene caused by administration of chemical substance, Gene No. 2546 [1]: −; Behavior of gene caused by administration of chemical substance, Gene No. 3776 [1]: −; Behavior of gene caused by administration of chemical substance, Gene No. 3929 [1]: −; Behavior of gene caused by administration of chemical substance, Gene No. 1119 [1]: −; Behavior of gene caused by administration of chemical substance, Gene No. 6742 [1]: −; Behavior of gene caused by administration of chemical substance, Gene No. 5634 [1]: −; Behavior of gene caused by administration of chemical substance, Gene No. 5726 [1]: −; Liver carcinogenicity [2]: Cr+; Carcinogenicity [3]: C+ |
